Data reported in ChEMBL document CHEMBL1152443, “Three adducts of butenolide and apigenin glycoside from the leaves of Machilus japonica” (J Nat Prod, 2009).
pIC50: −log10 of the molar value. The source made the active and inactive calls. The rule behind the calls is not given here.

Tests used:
[1] = test system: Geobacillus stearothermophilus; assay: Inhibition of Bacillus stearothermophilus alpha-glucosidase type IV at 10ug/mL
[2] = test system: Geobacillus stearothermophilus; assay: Inhibition of Bacillus stearothermophilus alpha-glucosidase type IV at 100ug/mL
[3] = Inhibition of Bacillus stearothermophilus alpha-glucosidase type IV; design: species or system Geobacillus stearothermophilus
PC-3 = assay: Cytotoxicity against human PC3 cells; format: functional, cell-based

| pIC50 [3] | SMILES | Activity [1] | inhibition [2] | IC50 (PC-3) |
| --- | --- | --- | --- | --- |
|  | CCCCCCCCCC[C@@H]1c2c(cc(O)c3c(=O)cc(-c4ccc(O[C@@H]5O[C@H](CO)[C@@H](O)[C@H](O)[C@H]5O)cc4)oc23)OO[C@@]12C(=O)O[C@H](C)C2=O | inactive | 64.7% |  |
|  | CCCCCCCC[C@@H]1c2c(c([C@@H]3O[C@H](CO)[C@@H](O)[C@H](O)[C@H]3O[C@@H]3O[C@@H](C)[C@H](O)[C@@H](O)[C@H]3O)c(O)c3c(=O)cc(-c4ccc(O)cc4)oc23)OO[C@@]12C(=O)O[C@H](C)C2=O | inactive | 93.7% |  |
|  | O=c1cc(-c2ccc(O[C@@H]3O[C@H](CO)[C@@H](O)[C@H](O)[C@H]3O)cc2)oc2cc(O)cc(O)c12 | inactive | 18.7% |  |
| 7.48 | C[C@H]1O[C@H](O[C@H]2[C@H](O)[C@@H](O)[C@@H](O[C@H]3[C@H](O)[C@@H](O)C(O)O[C@@H]3CO)O[C@@H]2CO)[C@H](O)[C@@H](O)[C@@H]1N[C@H]1C=C(CO)[C@@H](O)[C@H](O)[C@H]1O (stereo partly drawn) [ACARBOSE] |  |  |  |
|  | CCCCCCCCCC[C@@H]1c2c(c([C@@H]3O[C@H](CO)[C@@H](O)[C@H](O)[C@H]3O[C@@H]3O[C@@H](C)[C@H](O)[C@@H](O)[C@H]3O)c(O)c3c(=O)cc(-c4ccc(O)cc4)oc23)OO[C@@]12C(=O)O[C@H](C)C2=O [APIGENOSYLIDE A] |  |  | > 30 µg/mL |
